From patent publication US20240360135A1, “IMIDAZO[1,2-B]PYRIDAZINYL COMPOUNDS AND USES THEREOF” (Sumitomo Pharma Oncology, Inc., priority 2021, published 2024)

How the values were obtained:
PIM1 = biological target: T1, PIM1 (Homo sapiens, UniProt P11309); test: RBC HotSpot kinase inhibition assay, PIM1; format: biochemical
T1 construct: purchased Invitrogen PV3503
Description: (§1) Reagents. Base Reaction Buffer: 20 mM Hepes (pH 7.5), 10 mM MgCl2, 1 mM EGTA, 0.01% Brij35, 0.02 mg/ml BSA, 0.1 mM Na3VO4, 2 mM DTT, 1% DMSO. The following kinases were used in the assay at the indicated concentrations:
(§2) The following substrates were used in combination with the indicated kinases in the assay at the indicated concentration:
(§3) No cofactors were added to any of the reactions.
(§4) • 1. Prepared substrate in freshly prepared Reaction Buffer. • 2. Delivered kinase into the substrate solution and gently mixed. • 3. Delivered test compound in 100% DMSO into the kinase reaction mixture by Acoustic technology (Echo550; nanoliter range), incubated for 20 minutes at room temperature. • 4. Delivered ^33P-ATP into the reaction mixture to initiate the reaction. • 5. Incubated for 2 hours at room temperature. • 6. Detected kinase activity by P81 filter-binding method.
(§5) The results of the RBC HotSpot™ kinase assay are set forth in Table 1, wherein “A” indicates an IC50<10 nM, “B” indicates an IC50 wherein 10 nM≤IC50≤100 nM, and “C” indicates an IC50>100 nM.

PIM2 = biological target: T2, PIM2 (Homo sapiens, UniProt Q9P1W9); test: RBC HotSpot kinase inhibition assay, PIM2; format: biochemical
T2 construct: purchased Invitrogen PR6347B
T2 sequence (Q9P1W9 whole entry): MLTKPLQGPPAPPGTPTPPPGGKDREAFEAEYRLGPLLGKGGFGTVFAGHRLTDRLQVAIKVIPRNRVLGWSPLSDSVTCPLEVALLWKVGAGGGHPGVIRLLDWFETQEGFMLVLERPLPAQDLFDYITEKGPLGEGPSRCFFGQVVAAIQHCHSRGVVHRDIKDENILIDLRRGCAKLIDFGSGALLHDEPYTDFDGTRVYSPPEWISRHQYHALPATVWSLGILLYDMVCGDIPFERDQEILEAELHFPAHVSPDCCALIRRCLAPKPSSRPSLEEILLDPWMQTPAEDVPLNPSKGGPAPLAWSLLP
Description: as §1, §2, §3, §4, §5

PIM3 = biological target: T3, PIM3 (Homo sapiens, UniProt Q86V86); test: RBC HotSpot kinase inhibition assay, PIM3; format: biochemical
T3 construct: purchased Millipore 14-738
Description: as §1, §2, §3, §4, §5

[1] = test system: bleomycin-induced lung fibrosis; test: Bleomycin-induced lung fibrosis model in mice; format: in vivo, C57BL/6J mice; conditions: day 21
Description: Overview. The most common animal model of pulmonary fibrosis is the bleomycin-induced lung fibrosis model in rodents. This model is commonly used to investigate biology and potential therapies for fibrotic diseases affecting the lung, such as idiopathic pulmonary fibrosis (IPF). Bleomycin, a cytotoxic drug, is administered to mice or rats, and causes direct cell injury triggered by DNA strand breaks, which leads to an overproduction of reactive oxygen species causing inflammation, pulmonary toxicity, activation of fibroblasts and subsequent fibrosis. Fibrosis is hallmarked by aberrant activation of lung epithelial cells and accumulation of fibroblasts and myofibroblasts with excessive production of extracellular matrix such as collagen.
Hydroxyproline is a major component of protein collagen, and plays a key role in the stability of the collagen triple helix. […]
Procedure. […] The snap frozen portion of the lung tissue was subjected to hydroxyproline quantification, which is used as a common biomarker of fibrosis. […] The histological sections were scored using a modified Ashcroft scale, the number of mononuclear cell aggregates and alveolar mixed infiltrates as well as the levels of collagen. The mice were weighed on day seven, fourteen, and twenty-one to monitor weight changes, and mortality and clinical observations were recorded daily. […]

[2] = test system: IL-23-induced hyperplasia; test: IL-23 induced hyperplasia mouse model (psoriasis study); format: in vivo, C57BL/6J mice; conditions: for IL-17A production in ear tissue / IL-22 synthesis in ear tissue: day four; for thickness of the ear epidermal tissue: vs rmIL-23/vehicle; for gross ear thickness: caliper, vs rmIL-23/vehicle control group, BID dosing
Text: The IL-23-induced hyperplasia model involves the injection of IL-23 into the ear of mice, and is dependent on IL-22 for the development of dermal inflammation and acanthosis. This model is commonly used to investigate pathways involved in psoriasis as well as potential therapies. To test the ability of Compounds 2 and 4 to reduce psoriasis in vivo, an IL-23 induced hyperplasia mouse model was utilized, and analyses of end-points, such as IL-17A and IL-22 levels, and histological measure of epidermal thickness of the ear tissue, were performed. Procedure. Female C57BL/6J mice between 9 to 13 weeks old (purchased from Taconic Biosciences) were weighed on the day prior to study start to establish a baseline. All treatment arms contained ten animals. All animals, except the sham/vehicle group received 0.4 μg of recombinant mouse IL-23 (rmIL-23) in a volume of 20 μL intradermally into one ear. Mice in group 1 (sham/vehicle) received 20 μL PBS. A total of 4 injections per ear was performed while the second ear was not injected nor analyzed. All drugs were prepared in 0.5 percent methylcellulose and 2 percent Tween 80. Starting on day zero of the study (0.5 to 4 hours before rmIL-23 injection), two doses of test compound (100 or 150 milligrams per kilogram of Compound 4, or 50 or 75 milligrams per kilogram of Compound 2) were given. All dosing was at the same time (+/−1 hour) each day with no less than 10 hours and no more than 14 hours between doses. On days zero (before rmIL-23 injection), three, and four (approximately 24 hours after the final hyperplasia induction injection), thickness of ears was measured using a caliper. Measurements were performed blind, by a person unaware of group or previous measurements. On day four, approximately 24 hours after the final hyperplasia induction injection, all mice were euthanized, and treated ears collected and weighed. Half of each ear was weighed and frozen for cytokine analysis (IL-17A and IL-22 concentration was measured using the Luminex technology by ELISA). The other half of each ear were fixed in 10 percent buffered formalin following H&E staining for histological analysis.

[3] = 75 milligrams per kilogram twice a day
[4] = 100 milligrams per kilogram twice a day
[5] = 150 milligrams per kilogram twice a day

T1 sequence (P11309 whole entry): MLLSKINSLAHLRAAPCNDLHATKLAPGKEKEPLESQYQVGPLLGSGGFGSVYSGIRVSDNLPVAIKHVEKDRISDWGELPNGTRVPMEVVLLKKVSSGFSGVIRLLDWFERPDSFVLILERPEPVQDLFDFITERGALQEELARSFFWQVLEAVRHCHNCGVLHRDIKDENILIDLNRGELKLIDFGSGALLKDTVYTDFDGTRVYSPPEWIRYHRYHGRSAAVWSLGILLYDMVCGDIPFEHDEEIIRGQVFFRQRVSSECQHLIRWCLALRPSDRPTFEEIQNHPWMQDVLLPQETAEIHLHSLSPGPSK

Row | IC50 (PIM1) | IC50 (PIM2) | IC50 (PIM3) | Compound | Ashcroft score ([1]; 20 milligrams per kilogram twice a day) | IL-17A production in ear tissue [2, 3] | IL-22 synthesis in ear tissue [2, 3] | thickness of the ear epidermal tissue [2, 3] | gross ear thickness [2] | reduction of hydroxyproline in lung tissue ([1]; 15 milligrams per kilogram twice a day) | IL-17A production in ear tissue [2, 4] | IL-22 synthesis in ear tissue [2, 4] | thickness of the ear epidermal tissue [2, 4] | gross ear thickness, comparison between groups [2, 5] | IL-17A production in ear tissue [2, 5] | IL-22 synthesis in ear tissue [2, 5] | thickness of the ear epidermal tissue [2, 5]
1 | < 10 nM | > 100 nM | < 10 nM | Cc1cc(-c2cnc3ccc(NC45CCC(C(C)(C)O)(CC4)CC5)nn23)n[nH]1 [Compound 2, 2-(4-((3-(5-methyl-1H-pyrazol-3-yl)imidazo[1,2-b]pyridazin-6-yl)amino)bicyclo[2.2.2]octan-1-yl)propan-2-ol] | significantly reduced | strongly inhibited | reduced | significantly reduced | significantly reduced | – | – | – | – | – | – | – | –
2 | < 10 nM | 10 to 100 nM | < 10 nM | CC(C)(O)C12CCC(Nc3ccc4ncc(-c5cc(C6CC6)[nH]n5)n4n3)(CC1)CC2 [Compound 4, 2-(4-((3-(5-cyclopropyl-1H-pyrazol-3-yl)imidazo[1,2-b]pyridazin-6-yl)amino)bicyclo[2.2.2]octan-1-yl)propan-2-ol] | – | – | – | – | significantly reduced | greatest and most statistically significant reduction | strongly inhibited | reduced | significantly reduced | greater effect | strongly inhibited | reduced | significantly reduced
